# Patent US10543194B2, “Organic compounds” (INTRA-CELLULAR THERAPIES, INC., priority 2014, dated 2020)
# What was measured:
# [1] = Pharmacokinetic study in mice (plasma and brain availability); assay type: in vivo; settings: 10 mg/kg PO, compared to Bay 60-7550
# Procedure: Mice are given a single oral dose of the compound of Example 22 (10 mg/kg, PO) and plasma and brain availability are measured (0.25-4 h) using HPLC and LC-MS using methods analogous to those described in Zhao et al., J. Chromatogr. B. Analyt. Technol. Biomed. Life Sci. (2005) 819(1):73-80 and Appels, N. M., et al., Rapid Commun. Mass Spec. 2005. 19(15): p. 2187-92.
# [2] = tested on: cGMP levels in the striatum; test: Measurements of cGMP in mouse brain in vivo; settings: mice, 3 mg/kg i.p., 15, 30 or 60 min, compared to Bay 60-7550 (3 mg/kg)
# Procedure: Striatum are dissected from the mouse brains and assayed for levels of cGMP. Trichloroacetic acid (TCA) is added to tissue samples for a final concentration of 5% TCA and the tissue is immediately sonicated in solution and stored on ice. The sonicated sample is centrifuged at 15,000×g for 20 min at 4° C. to remove the precipitated protein. To extract the TCA, the sample is washed three times in water saturated ether. The samples are then dried under vacuum (Speedvac, Savant SPD111V) at room temperature and re-suspended in 100 μL EIA buffer. […] Each sample is tested in duplicate in precoated assay plates alongside the 8-point cGMP standard dilutions. In addition, blank, maximum binding (B0) and non-specific binding wells are included. To all wells containing 50 μL sample or standard, equal volumes of AChE-linked cGMP and cGMP antibody are added. The plate is incubated at 4° C. for 18 hours. The wells are then washed 5 times with wash buffer. Detection reagent containing acetylthiocholine and […] is added and the plate is incubated at room temperature until the OD of the B0 wells is at least 0.5 as recorded by the SoftMax 4.8 software (Molecular Devices, Sunnyvale, Calif.). Each data point is converted to % B/B0 (100*[sample or standard OD−average non-specific binding)/(average B0−average non-specific binding)]). […]
structure (smiles),measurement,setting,value
"COc1ccc2[nH]c(=O)c3c(C)nn(-c4cc(OCC5CCC5)ccc4Cl)c3c2n1 [Example 22, 1-(2-Chloro-5-(cyclobutylmethoxy)phenyl)-8-methoxy-3-methyl-1H-pyrazolo[4,3-c][1,5]naphthyridin-4(5H)-one]",brain access,[1],good brain access
same,cGMP levels in the striatum,[2],increases cGMP levels in the striatum
